Data from US12606556B2, “TYK-2 inhibitor” (BEIGENE, LTD., priority 2020, dated 2026).

Tests used:
[1] = target: T1, TYK2-JH2 (aa 575-869, in-house) protein (Homo sapiens, UniProt P29597); assay: TYK2-JH2 biochemical assay (HTRF, blocking of TYK2-JH2 protein with its probe); format: binding; conditions: for IC50: HTRF, 0.2 nM recombinant TYK2-JH2, Probe 1; for Biochemical assay Selectivity fold (TYK2/JAK1): TYK2-JH2 vs JAK1-JH2 biochemical IC50
T1 construct: TYK2-JH2 (aa 575-869, in-house) protein; made in house
Summary of the method: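 Recombinant TYK2-JH2 (0.2 nM) pre-incubated with compounds (10 doses, 5-fold dilutions) 0.5 h at RT in HEPES pH 7.5 buffer with MgCl2, BSA, DTT, Brij-35; biotinylated probe (10 nM working solution, KD=10 nM) plus anti-6His Tb cryptate/streptavidin-XL665 added, 1 h RT. HTRF ratio read; IC50 from four-parameter logistic fit.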

[2] = target: T2, JAK1-JH2 protein (aa 561-860, in-house) (Homo sapiens, UniProt P23458); assay: JAK1-JH2 biochemical assay (HTRF, blocking of JAK1-JH2 protein with its probe); format: binding; conditions: 1.17 nM recombinant JAK1-JH2, Probe 2
T2 construct: JAK1-JH2 protein (aa 561-860, in-house); made in house
Summary of the method: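 HTRF probe-displacement assay using recombinant human JAK1 pseudokinase domain (aa 561-860, 1.17 nM in pre-incubation step), pre-incubated 0.5 h at room temperature with 10-dose 5-fold compound series. Buffer: 20 mM HEPES pH 7.5, 10 mM MgCl2, 0.005% BSA, 2 mM DTT, 0.015% Brij-35. IC50 by four-parameter logistic fit of 615/665 nm ratio.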

[3] = test system: JAK2, TYK2/p-STAT4 (Tyr693) activated by IL-12 in NK-92 cell line; assay: IL-12-JAK2, TYK2/p-STAT4 (Tyr693) inhibition cellular assay; format: cell-based; conditions: for IC50: NK92, 0.5 h, NK-92 cells, IL-12 40 ng/ml, 30 min, read-out: Cellular assay pSTAT4/IL-12 IC50; for Cellular assay Selectivity fold (TYK2/JAK1): pSTAT4/IL-12 vs pSTAT3/IL-6 cellular IC50
Summary of the method: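 NK-92 cells were starved overnight without IL-2 and seeded at 5×10^4 per well in 1640 medium with 0.1% BSA. Lysate p-STAT4 (Tyr693) was measured by AlphaLISA SureFire, and IC50 was fitted with a 4-parameter logistic model.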

[4] = test system: JAK1/p-STAT3(Tyr705) activated by IL-6 in TF-1 cell line; assay: IL-6-JAK1/p-STAT3(Tyr705) inhibition cellular assay; format: cell-based; conditions: Homo sapiens, 0.5 h; TF-1 cells, IL-6 50 ng/ml, 30 min; read-out: Cellular assay pSTAT3/IL-6 IC50

T1 sequence (P29597 575-869): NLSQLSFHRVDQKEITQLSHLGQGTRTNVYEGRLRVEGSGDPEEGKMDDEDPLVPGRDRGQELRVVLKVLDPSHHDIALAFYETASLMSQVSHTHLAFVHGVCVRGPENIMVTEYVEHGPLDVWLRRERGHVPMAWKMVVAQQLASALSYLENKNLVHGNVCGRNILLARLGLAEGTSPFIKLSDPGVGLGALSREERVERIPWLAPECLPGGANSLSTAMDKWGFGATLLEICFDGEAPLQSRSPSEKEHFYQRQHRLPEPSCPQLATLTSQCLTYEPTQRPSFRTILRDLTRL
T2 sequence (P23458 561-860): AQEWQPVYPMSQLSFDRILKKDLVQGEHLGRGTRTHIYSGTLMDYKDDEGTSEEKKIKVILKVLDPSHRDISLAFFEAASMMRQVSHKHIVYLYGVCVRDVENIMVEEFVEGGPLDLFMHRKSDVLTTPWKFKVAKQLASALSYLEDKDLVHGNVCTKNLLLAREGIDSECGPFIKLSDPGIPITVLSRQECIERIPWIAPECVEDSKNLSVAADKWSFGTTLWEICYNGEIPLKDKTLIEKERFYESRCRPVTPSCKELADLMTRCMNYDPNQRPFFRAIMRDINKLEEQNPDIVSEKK

SMILES	IC50 [1] [nM]	Biochemical assay Selectivity fold (TYK2/JAK1) [1] [fold]	IC50 [2] [nM]	IC50 [3] [nM]	Cellular assay Selectivity fold (TYK2/JAK1) [3] [fold]	IC50 [4] [nM]
CNC(=O)c1nnc(NC(=O)C2CC2)cc1Nc1nc2ccc(N3CCC(C4CN(C)C4)CC3)cn2n1 [Example P1, 6-(cyclopropanecarboxamido)-N-methyl-4-((6-(4-(1-methylazetidin-3-yl)piperidin-1-yl)-[1,2,4]triazolo[1,5-a]pyridin-2-yl)amino)pyridazine-3-carboxamide]	0.039	36	1.4	29	>344	> 10000
CNC(=O)c1nnc(NC(=O)C2CC2)cc1Nc1nc2ccc(N3CC(C(=O)N4CCSC4)C3)cn2n1 [Example Q1, 6-(cyclopropanecarboxamido)-N-methyl-4-((6-(3-(thiazolidine-3-carbonyl)azetidin-1-yl)-[1,2,4]triazolo[1,5-a]pyridin-2-yl)amino)pyridazine-3-carboxamide]	0.16	14	2.18	157	>64	> 10000
